According to patent publication US4861769A, “Cephem compounds” (Fujisawa Pharmaceutical Co., Ltd., priority 1985, dated 1989):
Converted amounts (≈) assume the structure as drawn.

How the values were obtained:
Assay type in all cases: cell-based
[1] = tested on: P. vulgaris IAM 1025; experiment: In vitro antibacterial activity, two-fold agar-plate dilution method (MIC), P. vulgaris IAM 1025; details: Proteus vulgaris, IAM1025, heart infusion agar, 37° C., 20 hours, read-out: MIC (minimal inhibitory concentration)
Protocol: (§1) Now in order to show the utility of the object compounds [I], the test data on MIC (minimal inhibitory concentration) of representative compounds [I] of this invention are shown in the following.
(§2) In vitro antibacterial activity was determined by the two-fold agar-plate dilution method as described below.
(§3) One loopful of an overnight culture of each test strain in Trypticase-soy broth (10^6 viable cells per ml) was streaked on heart infusion agar (HI-agar) containing graded concentrations of representative test compound, and the minimal inhibitory concentration (MIC) was expressed in terms of μg/ml after incubation at 37° C. for 20 hours.

[2] = tested on: E. coli 58; experiment: In vitro antibacterial activity, two-fold agar-plate dilution method (MIC), E. coli 58; details: Escherichia coli, heart infusion agar, 37° C., 20 hours, read-out: MIC (minimal inhibitory concentration)
Protocol: as §1, §2, §3

[3] = tested on: P. mirabilis 1; experiment: In vitro antibacterial activity, two-fold agar-plate dilution method (MIC), P. mirabilis 1; details: Proteus mirabilis, heart infusion agar, 37° C., 20 hours, read-out: MIC (minimal inhibitory concentration)
Protocol: as §1, §2, §3

[4] = tested on: E. coli 31; experiment: In vitro antibacterial activity, two-fold agar-plate dilution method (MIC), E. coli 31; details: Escherichia coli, heart infusion agar, 37° C., 20 hours, read-out: MIC (minimal inhibitory concentration)
Protocol: as §1, §2, §3

[5] = tested on: S. aureus 209P JC-1; experiment: In vitro antibacterial activity, two-fold agar-plate dilution method (MIC), S. aureus 209P JC-1; details: Staphylococcus aureus, heart infusion agar, 37° C., 20 hours, read-out: MIC (minimal inhibitory concentration)
Protocol: as §1, §2, §3

SMILES	MIC [1]	MIC [2]	MIC [3]	MIC [4]	MIC [5]
Nc1nc(/C(=N/OC2CC2(Cl)Cl)C(=O)N[C@@H]2C(=O)N3C(C(=O)[O-])=C(C[n+]4ccccc4)CS[C@H]23)cs1 (some centres unmarked) [(6)]	0.05 µg/mL (≈ 0.0878 µM)	0.2 µg/mL (≈ 0.351 µM)	1.56 µg/mL (≈ 2.74 µM)	0.05 µg/mL (≈ 0.0878 µM)	0.39 µg/mL (≈ 0.685 µM)
Nc1nc(/C(=N/OC2CC2Cl)C(=O)N[C@@H]2C(=O)N3C(C(=O)O)=C(CSc4nncs4)CS[C@H]23)cs1 (single isomer, unassigned) [(7)]	≤ 0.025 µg/mL	0.05 µg/mL (≈ 0.0871 µM)	0.2 µg/mL (≈ 0.348 µM)	≤ 0.025 µg/mL	0.39 µg/mL (≈ 0.679 µM)
Nc1nc(/C(=N/OC2CC2)C(=O)N[C@@H]2C(=O)N3C(C(=O)O)=C(CSc4ncns4)CS[C@H]23)cs1 [(5)]	≤ 0.025 µg/mL	≤ 0.025 µg/mL	0.05 µg/mL (≈ 0.0927 µM)	≤ 0.025 µg/mL	0.39 µg/mL (≈ 0.723 µM)
Nc1nc(/C(=N/OC2CC2)C(=O)N[C@@H]2C(=O)N3C(C(=O)[O-])=C(C[n+]4ccccc4)CS[C@H]23)cs1 [(1)]	0.05 µg/mL (≈ 0.0999 µM)	0.05 µg/mL (≈ 0.0999 µM)	0.1 µg/mL (≈ 0.2 µM)	≤ 0.025 µg/mL	0.39 µg/mL (≈ 0.779 µM)
Nc1nc(/C(=N/OC2CC2)C(=O)N[C@@H]2C(=O)N3C(C(=O)O)=C(CSc4nncs4)CS[C@H]23)cs1 [(2)]	≤ 0.025 µg/mL	≤ 0.025 µg/mL	0.05 µg/mL (≈ 0.0927 µM)	≤ 0.025 µg/mL	0.39 µg/mL (≈ 0.723 µM)
Nc1nc(/C(=N/OC2CC2)C(=O)N[C@@H]2C(=O)N3C(C(=O)[O-])=C(C[n+]4ccccc4)CS[C@H]23)ns1 [(10)]	0.1 µg/mL (≈ 0.199 µM)	0.2 µg/mL (≈ 0.399 µM)	0.2 µg/mL (≈ 0.399 µM)	< 0.025 µg/mL	0.78 µg/mL (≈ 1.56 µM)
Cn1c(SCC2=C(C(=O)O)N3C(=O)[C@@H](NC(=O)/C(=N\OC4CC4)c4csc(N)n4)[C@H]3SC2)n[nH]c(=O)c1=O [(3)]	0.05 µg/mL (≈ 0.0861 µM)	≤ 0.025 µg/mL	0.05 µg/mL (≈ 0.0861 µM)	≤ 0.025 µg/mL	0.39 µg/mL (≈ 0.672 µM)
Nc1nc(/C(=N/OC2CC2)C(=O)N[C@@H]2C(=O)N3C(C(=O)O)=C(CSc4cnns4)CS[C@H]23)cs1 [(8)]	0.1 µg/mL (≈ 0.185 µM)	0.05 µg/mL (≈ 0.0927 µM)	0.1 µg/mL (≈ 0.185 µM)	≤ 0.025 µg/mL	0.78 µg/mL (≈ 1.45 µM)
Nc1nc(/C(=N/OC2CC2)C(=O)N[C@@H]2C(=O)N3C(C(=O)O)=C(CSc4ccc5nnnn5n4)CS[C@H]23)cs1 [(4)]	0.05 µg/mL (≈ 0.087 µM)	0.05 µg/mL (≈ 0.087 µM)	0.1 µg/mL (≈ 0.174 µM)	≤ 0.025 µg/mL	0.39 µg/mL (≈ 0.679 µM)
CC(=O)OCC1=C(C(=O)O)N2C(=O)[C@@H](NC(=O)/C(=N\OC3CC3)c3csc(N)n3)[C@H]2SC1 [(9)]	≤ 0.025 µg/mL	0.05 µg/mL (≈ 0.104 µM)	0.05 µg/mL (≈ 0.104 µM)	0.05 µg/mL (≈ 0.104 µM)	1.56 µg/mL (≈ 3.24 µM)
